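Growth conditions: 96-well plates. Treatment: test compound, 48 hours, 5 concentrations. Analysis: linear interpolation between bracketing concentrations; unreached endpoints set to highest concentration. GI50 is the concentration that inhibits growth by half.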 Calls of active or inactive are those of the source. Rule as the data show it: active = GI50 up to about 1.1 µM and inactive = higher.
Assays:
Assay in all cases: NCI-60 cell line screen, 48 h
ACHN = test system: ACHN
Malme-3M = test system: Malme-3M
UACC-62 = test system: UACC-62
OVCAR-8 = test system: OVCAR-8
OVCAR-3 = test system: OVCAR-3
NCI-H522 = test system: NCI-H522
HCT-116 = test system: HCT-116
NCI-H226 = test system: NCI-H226
CAKI-1 = test system: CAKI-1
MOLT-4 = test system: MOLT-4
SR = test system: SR
UACC-257 = test system: UACC-257
Hs-578T = test system: Hs-578T
T47D = test system: T47D
NCI-H460 = test system: NCI-H460
MCF7 = test system: MCF7
OVCAR-5 = test system: OVCAR-5
786-0 = test system: 786-0
NCI/ADR-RES = test system: NCI/ADR-RES
SK-MEL-5 = test system: SK-MEL-5

Measured: GI50

Cn1c(=O)[nH]c2nccnc2c1=O
inactive: ACHN > 10 µM | Malme-3M > 10 µM | UACC-62 > 10 µM | OVCAR-8 > 10 µM | OVCAR-3 > 10 µM | NCI-H522 > 10 µM | HCT-116 > 10 µM | NCI-H226 > 10 µM | CAKI-1 > 10 µM | MOLT-4 > 10 µM | SR > 10 µM | UACC-257 > 10 µM | Hs-578T > 10 µM | T47D > 10 µM | NCI-H460 > 10 µM | MCF7 > 10 µM | OVCAR-5 > 10 µM | 786-0 > 10 µM | NCI/ADR-RES > 10 µM | SK-MEL-5 > 10 µM

O=c1[nH]c2cc3cccnc3c(Cl)c2nc1C(F)(F)F
inactive: ACHN 35.9 µM | Malme-3M 77.8 µM | UACC-62 22 µM | OVCAR-8 28.8 µM | OVCAR-3 34.4 µM | NCI-H522 28.6 µM | HCT-116 43.5 µM | NCI-H226 30.1 µM | CAKI-1 21.2 µM | MOLT-4 23.6 µM | SR 28.2 µM | UACC-257 27.1 µM | Hs-578T 58.1 µM | T47D 33.6 µM | NCI-H460 27.5 µM | MCF7 28.3 µM | OVCAR-5 > 100 µM | 786-0 72.4 µM | NCI/ADR-RES 33.3 µM | SK-MEL-5 14.5 µM

CCOc1ccc(/C(C=O)=C(\Cl)c2ccc(OC)cc2)cc1
inactive: ACHN > 100 µM | Malme-3M > 70.5 µM | UACC-62 > 51.9 µM | OVCAR-8 > 100 µM | OVCAR-3 > 100 µM | NCI-H522 > 27.2 µM | HCT-116 > 83.8 µM | NCI-H226 > 100 µM | CAKI-1 > 40 µM | MOLT-4 5.48 µM | SR 5.16 µM | UACC-257 9.35 µM | Hs-578T 34.4 µM | T47D 24.2 µM | NCI-H460 > 100 µM | MCF7 > 100 µM | OVCAR-5 > 100 µM | 786-0 > 100 µM | NCI/ADR-RES 77.4 µM | SK-MEL-5 41.7 µM

CNC1=C/C(=N/C2=CC(=N/C(=C\C#N)C(C)(C)O)/OC2(C)C)OC1(C)C
inactive: ACHN 4.32 µM | Malme-3M 25.2 µM | UACC-62 7.91 µM | OVCAR-8 9.84 µM | OVCAR-3 32.4 µM | NCI-H522 13 µM | HCT-116 5.15 µM | NCI-H226 20.8 µM | CAKI-1 7.82 µM | MOLT-4 2.31 µM | SR 4.9 µM | UACC-257 43.3 µM | Hs-578T 35.1 µM | T47D 6.78 µM | NCI-H460 5.97 µM | MCF7 5.82 µM | OVCAR-5 60.4 µM | 786-0 11.8 µM | NCI/ADR-RES 40.4 µM | SK-MEL-5 14.9 µM

COC(=O)/C=C(/C(=O)OC)c1c(C)c(C)c2c(C)cc(C)cc(C)c1-2
inactive: ACHN 20 µM | Malme-3M 28.4 µM | UACC-62 8.39 µM | OVCAR-8 46.3 µM | OVCAR-3 22.1 µM | NCI-H522 12.2 µM | HCT-116 17.4 µM | NCI-H226 13.3 µM | CAKI-1 27.4 µM | MOLT-4 > 100 µM | SR 45.5 µM | UACC-257 22 µM | Hs-578T 8.99 µM | T47D 80.9 µM | NCI-H460 29 µM | MCF7 25.2 µM | OVCAR-5 19.1 µM | 786-0 > 100 µM | NCI/ADR-RES 15.2 µM | SK-MEL-5 12.6 µM

CC[C@H](C)[C@H]1NC(=O)[C@@H](NC(=O)[C@@H](CC(C)C)N(C)C(=O)C2CCCN2C(=O)[C@H](C)O)[C@@H](C)OC(=O)[C@H](Cc2ccc(OC)cc2)N(C)C(=O)[C@@H]2CCCN2C(=O)[C@H](CCCCNC(=O)OCc2ccccc2)NC(=O)[C@H](C)C(=O)[C@H](C(C)C)OC(=O)C[C@@H]1O (stereo not given in full)
inactive: ACHN 20.1 µM | Malme-3M 4.89 µM | UACC-62 8.2 µM | OVCAR-8 19.7 µM | OVCAR-3 4.01 µM | NCI-H522 3.37 µM | HCT-116 3.28 µM | NCI-H226 12.7 µM | CAKI-1 16.8 µM | MOLT-4 4.79 µM | SR 12.2 µM | UACC-257 2.49 µM | Hs-578T 1.41 µM | T47D 7.67 µM | NCI-H460 6.4 µM | MCF7 2.77 µM | OVCAR-5 7.28 µM | 786-0 5.56 µM | NCI/ADR-RES > 25 µM | SK-MEL-5 4.41 µM

COc1ccc(/C=C2\CCC(Cc3ccccc3)(CN(C)C)C2=O)cc1 (stereo not given)
inactive: ACHN 82 µM | Malme-3M 42.3 µM | UACC-62 36.9 µM | OVCAR-8 41.6 µM | OVCAR-3 43.7 µM | NCI-H522 31.8 µM | HCT-116 28.8 µM | NCI-H226 42 µM | CAKI-1 48 µM | MOLT-4 25 µM | SR 20.6 µM | UACC-257 25.2 µM | Hs-578T > 91.2 µM | T47D 46.7 µM | NCI-H460 67.3 µM | MCF7 41.8 µM | OVCAR-5 > 96.2 µM | 786-0 41.7 µM | NCI/ADR-RES 42.2 µM | SK-MEL-5 20.8 µM

Source: ChEMBL document CHEMBL1201862, “PubChem BioAssay data set” (2004)
